What was measured:
[1] = target: T1, histamine 1 receptor H1R (Homo sapiens, UniProt P35367); assay: H1R calcium flux fluorescence assay with GCaMP3 or small molecule dye kits; format: cell-based; settings: HEK293 and HeLa cells
T1 construct: The H1R was cloned into the pCAG mammalian expression vector; expressed in transfected cells; host or cells: HEK293 and HeLa cells, transfected with pCAG-H1R (with pCAG-GCaMP3 or loaded with a dye kit)
Procedure: The nucleic acid sequence was cloned into a mammalian expression vector driving from the CAG promoter (pCAG).
The H1R was cloned into the pCAG mammalian expression vector. […] In parallel, HEK293 cells were transfected with pCAG-H1R and incubated with either of the two best-performing small molecule dye calcium kits (the BD Calcium Kit from BD Biosciences and the FLIPR Calcium-5 Kit from Molecular Devices). […] Biophys.

[2] = system: HEK293 cells; assay: Baseline fluorescence (brightness) of GCaMP-transfected HEK293 cells; format: cell-based, human; settings: 10 μM proteasome inhibitor
Procedure: FIGS. 1A-1E show the in vitro characterization of GCaMP3. […] FIG. 1B is a schematic representation of GCaMP2 and GCaMP3. Mutated residues are shown below GCaMP3. FIG. 1C is a graph of the fluorescence spectra of GCaMP3 and GCaMP2 (1 μM protein) with 1 mM Ca^2+ or 10 mM EGTA in MOPS buffer (30 mM MOPS, 100 mM KCl, pH 7.5) (average of three independent measurements). The fluorescence intensity of each indicator was normalized to the peak of the calcium-saturated spectrum. […] FIG. 1D is a graph of the Ca^2+ titration curve (1 μM protein) in MOPS buffer. […] FIG. 1E is images (left) and a graph (right) showing the improved baseline fluorescence of GCaMP3 compared to GCaMP2. Both indicators were either transfected to HEK293 cells or virally delivered to layer 2/3 cortical neurons. Images were taken either 48 hours post-transfection or 12 days post-viral injection, then analyzed with VOLOCITY® 5.0 (Improvision Imaging Processing & Vision Co., Coventry, England). 50 μm scale bar. […]
GCaMPs in pCMV were transfected into HEK293 cells using Lipofectamine 2000 (Invitrogen, Carlsbad, Calif.), and imaging experiments were performed 48 hours post transfection. 293 cells transfected with GCaMPs in 96-well plate were imaged on an FDSS plate reader (Hamamatsu, Japan). Acetylcholine (Ach) was automatically added 10 seconds after read initiation. Brightness was quantified using VOLOCITY® 5.0 (Improvision).

T1 sequence (P35367 with tags, fused parts or gaps): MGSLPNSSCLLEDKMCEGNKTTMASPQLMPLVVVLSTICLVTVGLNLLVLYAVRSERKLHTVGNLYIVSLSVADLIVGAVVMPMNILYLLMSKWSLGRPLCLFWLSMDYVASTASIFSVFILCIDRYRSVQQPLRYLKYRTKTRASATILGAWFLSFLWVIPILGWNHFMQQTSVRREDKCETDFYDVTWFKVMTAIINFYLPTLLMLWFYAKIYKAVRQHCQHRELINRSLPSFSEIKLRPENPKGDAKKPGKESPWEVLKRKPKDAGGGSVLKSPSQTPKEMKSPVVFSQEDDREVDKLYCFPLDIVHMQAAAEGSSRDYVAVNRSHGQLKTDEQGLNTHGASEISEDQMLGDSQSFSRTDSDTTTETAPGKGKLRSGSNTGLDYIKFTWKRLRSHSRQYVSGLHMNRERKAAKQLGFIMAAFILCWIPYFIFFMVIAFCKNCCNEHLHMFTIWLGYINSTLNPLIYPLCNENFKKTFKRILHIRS

response-to-baseline ratio ([1]; 10 nM histamine plus antagonist, all detection methods)	inhibition of the H1R receptor ([1]; 10 nM histamine, GCaMP3 and both dye kits)	SMILES	effect on baseline fluorescence of HEK293 cells expressing GCaMP2 [2]
~1.0	near complete inhibition	O=C(O)COCCN1CCN(C(c2ccccc2)c2ccc(Cl)cc2)CC1 (stereo not drawn) [cetirizine]	
		CC(=O)N[C@@H](CSC(=O)[C@]1([C@@H](O)C(C)C)NC(=O)[C@H](C)[C@@H]1O)C(=O)O [lactacystin]	increased the baseline fluorescence

— US8629256B2, “Genetically encoded calcium indicator polypeptides and nucleic acids encoding same” (Howard Hughes Medical Institute, priority 2009, dated 2014)
